Test system: corticospinal neurons (CSNs/CSMNs)
Assay: Laser-capture microdissection and Illumina microarray gene expression in corticospinal neurons contralateral to stroke
Type: in vivo, rat
Protocol: In a separate group of animals (n=20), layer V pyramidal cells of the sensorimotor cortex were retrogradely labeled by injecting Alexa-Fluor-488-conjugated cholera toxin B subunit (CTB; 300 U/μl in sterile saline) into the cervical spinal cord. For this, animals were anesthetized with a combination of ketamine and Domitor (medetomidine) and a laminectomy was performed at the cervical level of the spinal cord (C2-C4). CTB was stereotaxically delivered into four sites lateral to the corticospinal tract. Injections (1.3 μl) were spaced 1 mm apart on the rostro-caudal axis, and were made 0.5 mm to the left and right of the midline. After allowing two weeks for transport of the tracer, we performed either sham surgery with no treatment (n=6) or stroke surgery combined with saline (n=3) or inosine (n=4) treatment as described above. Seven days later, animals were decapitated under transient gas anesthesia, brains were removed and rinsed in cold RPMI medium, and a tissue block containing the sensorimotor cortex was dissected and placed in OCT Tissue Tek Medium (Sakura Finetek USA Inc., CA) on dry ice within five minutes of death. Ten μm sections were cut onto precleaned Gold Seal RITE-ON glass slides (Gold Seal Prod-ucts, Portsmouth, N.H.), placed on dry ice, and rapidly stored at −80° C.
Slide-mounted sections were thawed and dehydrated in RNAse-free ethanol gradients and xylene. Retro-gradely labeled, fluorescent cortical pyramidal cells in the undamaged hemisphere were individually captured using the Arcturus VERITAS system. ≧500 cells were collected from each animal and stored in Arcturus extraction buffer at −80° C. Total RNA was extracted from cells using the Micro-to-Midi TotalRNA Purification System (Invitrogen, Carlsbad Calif.) and double-amplified using the TargetAmp 2-Round Aminoallyl-aRNA Amplification kit 1.0 (Epicentre, Madison, Wis.). Amplified RNA was checked for average fragment length using the Agilent RNA 6000 Nano LabChip kit (Agilent Technologies, Santa Clara, Calif.) and then biotinylated and hybridized (1 μg) on Illumina RatRef-12 Expression BeadChip arrays (Illumina, San Diego Calif.), querying the expression of >22,000 RefSeq-curated rat transcripts. Results were obtained from a total of 15 samples representing 6 untreated controls, 4 animals with stroke treated with saline and 5 animals with stroke treated with inosine. Slides were processed and scanned with Illumina BeadStation platform according to the manufacturer protocol.
Raw data was analyzed using Bioconductor packages (www.bioconductor.org, (Gentleman et al., 2004)). Low level quality-control analysis was performed using inter-array Pearson correlation and clustering based on variance. Two arrays (1 saline and 1 inosine-treated) were outliers and were excluded from the analysis. Data was normalized using quantile normalization, and analysis of differential expression was performed using a linear model fitting (LIMMA package, (Smyth, 2005). Differentially expressed genes were classified according to gene ontology using Bioconductor packages and online tools (DAVID, http://david.abcc.ncifcrf.gov/). Pathway analysis was carried out using Ingenuity Pathway Analysis (Ingenuity Systems, www.ingenuity.com).

OC[C@H]1O[C@@H](n2cnc3c(O)ncnc32)[C@H](O)[C@@H]1O [inosine]
Fold-Induction Stroke, ino vs. cntrl, Hbld2 (ILMN_57967): 0.54
Signal Intensity, Hbld2 (ILMN_57967, inosine after stroke): 1095
Fold-Induction Stroke, ino vs. cntrl, LOC298490 (ILMN_58032): 0.62
Signal Intensity, LOC298490 (ILMN_58032, inosine after stroke): 1407
Fold-induction CSMNs: Lcp1 (ILMN_58058, over and above inosine's effect of decreasing stroke-induced changes): 2.68 fold
Fold-Induction Stroke, ino vs. cntrl, LOC290549 (ILMN_58092): 0.54
Signal Intensity, LOC290549 (ILMN_58092, inosine after stroke): 1870
Fold-Induction Stroke, ino vs. cntrl, Rhob (ILMN_58180): 0.52
Signal Intensity, Rhob (ILMN_58180, inosine after stroke): 276
Fold-Induction Stroke, ino vs. cntrl, Gdap2 (ILMN_58290): 0.58
Signal Intensity, Gdap2 (ILMN_58290, inosine after stroke): 319
Fold-Induction, complement cascade gene C1qa (ILMN_58496, LCM-captured CSMNs contralateral a stroke): 2.03 fold
Fold-induction CSMNs: C1qa (ILMN_58496, over and above inosine's effect of decreasing stroke-induced changes): 1.84 fold
Fold-Induction Stroke, ino vs. cntrl, Rab11a (ILMN_58550): 0.56
Signal Intensity, Rab11a (ILMN_58550, inosine after stroke): 1039
Fold-Induction Stroke, ino vs. cntrl, LOC499088 (ILMN_58730): 0.59
Signal Intensity, LOC499088 (ILMN_58730, inosine after stroke): 1089
Fold-Induction Stroke, ino vs. cntrl, Dars (ILMN_58816): 0.76
Signal Intensity, Dars (ILMN_58816, inosine after stroke): 349
Fold-Induction, complement cascade gene Adn ((P) adipsin) (ILMN_58846, LCM-captured CSMNs contralateral a stroke): 5.81 fold
Fold-Induction Stroke, ino vs. cntrl, Emb (ILMN_58897): 0.77
Signal Intensity, Emb (ILMN_58897, inosine after stroke): 425
Fold-Induction Stroke, ino vs. cntrl, Kifap3 (ILMN_59040): 0.64
Signal Intensity, Kifap3 (ILMN_59040, inosine after stroke): 270
Fold-induction CSMNs: Npc2 (ILMN_59161, over and above inosine's effect of decreasing stroke-induced changes): 1.73 fold
Fold-Induction Stroke, ino vs. cntrl, Plcb1 (ILMN_59359): 0.59
Signal Intensity, Plcb1 (ILMN_59359, inosine after stroke): 512
Fold-induction CSMNs: Emp3 (ILMN_59412, over and above inosine's effect of decreasing stroke-induced changes): 2.20 fold
Fold-Induction Stroke, ino vs. cntrl, LOC291762 (ILMN_59483): 0.52
Signal Intensity, LOC291762 (ILMN_59483, inosine after stroke): 673
Fold-Induction Stroke, ino vs. cntrl, LOC315840 (ILMN_59546): 0.85
Signal Intensity, LOC315840 (ILMN_59546, inosine after stroke): 3649
Fold-Induction, complement cascade gene C4-2 (ILMN_59751, LCM-captured CSMNs contralateral a stroke): 2.15 fold
Fold-induction CSMNs: Ppp1r14b (ILMN_59774, over and above inosine's effect of decreasing stroke-induced changes): 1.74 fold
Fold-Induction Stroke, ino vs. cntrl, Bcas2 (ILMN_59789): 0.91
Signal Intensity, Bcas2 (ILMN_59789, inosine after stroke): 1103
Fold-Induction Stroke, ino vs. cntrl, D123 (ILMN_59956): 0.76
Signal Intensity, D123 (ILMN_59956, inosine after stroke): 607
Fold-Induction Stroke, ino vs. cntrl, LOC497728 (ILMN_59964): 0.56
Signal Intensity, LOC497728 (ILMN_59964, inosine after stroke): 1366
Fold-induction CSMNs: Cd68 (ILMN_60003, over and above inosine's effect of decreasing stroke-induced changes): 2.62 fold
Fold-Induction Stroke, ino vs. cntrl, Tspan2 (ILMN_60033): 0.54
Signal Intensity, Tspan2 (ILMN_60033, inosine after stroke): 1363
Fold-induction CSMNs: Lgals3bp (ILMN_60037, over and above inosine's effect of decreasing stroke-induced changes): 2.60 fold
Fold-Induction, complement cascade gene Serping1 (ILMN_60046, LCM-captured CSMNs contralateral a stroke): 2.20 fold
Fold-induction CSMNs: Serping1 (ILMN_60046, over and above inosine's effect of decreasing stroke-induced changes): 2.93 fold
Fold-Induction Stroke, ino vs. cntrl, Pgk1 (ILMN_60123): 0.65
Signal Intensity, Pgk1 (ILMN_60123, inosine after stroke): 5869
Fold-Induction Stroke, ino vs. cntrl, Ndufa8 (ILMN_60239): 0.57
Signal Intensity, Ndufa8 (ILMN_60239, inosine after stroke): 572
Fold-Induction Stroke, ino vs. cntrl, Kbtbd9 (ILMN_60252): 0.68
Signal Intensity, Kbtbd9 (ILMN_60252, inosine after stroke): 1263
Fold-Induction Stroke, ino vs. cntrl, LOC309016 (ILMN_60417): 0.68
Signal Intensity, LOC309016 (ILMN_60417, inosine after stroke): 554
Fold-Induction Stroke, ino vs. cntrl, Bckdhb (ILMN_60448): 0.61
Signal Intensity, Bckdhb (ILMN_60448, inosine after stroke): 281
Fold-Induction Stroke, ino vs. cntrl, Rbm18 (ILMN_60511): 0.62
Signal Intensity, Rbm18 (ILMN_60511, inosine after stroke): 301
Fold-Induction Stroke, ino vs. cntrl, LOC360618 (ILMN_60542): 0.69
Signal Intensity, LOC360618 (ILMN_60542, inosine after stroke): 1021
Fold-Induction Stroke, ino vs. cntrl, Mg87 (ILMN_60584): 0.80
Signal Intensity, Mg87 (ILMN_60584, inosine after stroke): 1251
Fold-Induction Stroke, ino vs. cntrl, Ndfip1 (ILMN_60653): 0.80
Signal Intensity, Ndfip1 (ILMN_60653, inosine after stroke): 362
Fold-induction CSMNs: Rhoc (ILMN_61063, over and above inosine's effect of decreasing stroke-induced changes): 2.02 fold
Fold-Induction Stroke, ino vs. cntrl, Pja2 (ILMN_61213): 0.58
Signal Intensity, Pja2 (ILMN_61213, inosine after stroke): 2360
Fold-Induction Stroke, ino vs. cntrl, Khdrbs3 (ILMN_61216): 0.57
Signal Intensity, Khdrbs3 (ILMN_61216, inosine after stroke): 2045
Fold-Induction Stroke, ino vs. cntrl, Dlgap1 (ILMN_61367): 0.68
Signal Intensity, Dlgap1 (ILMN_61367, inosine after stroke): 1249
Fold-Induction, complement cascade gene C1qb (ILMN_61448, LCM-captured CSMNs contralateral a stroke): 1.84 fold
Fold-Induction Stroke, ino vs. cntrl, LOC500629 (ILMN_61521): 0.59
